Experimental data from ChEMBL document CHEMBL4840357, “Functionalized Dioxonaphthoimidazoliums: A Redox Cycling Chemotype with Potent Bactericidal Activities against Mycobacterium tuberculosis” (J Med Chem, 2021).
In brackets after ≈: the same amount, converted by molar mass. Activity calls are given as the source filed them. The calls are words filed in the database; no cut-off is given here.

What was measured:
[1] = test system: Mycobacterium tuberculosis variant bovis BCG; experiment: Induction of ROS generation in Mycobacterium bovis BCG ATCC 35734 at <= 1 times of MIC90 after 90 mins by cellrox-green reagent based assay; format: functional, organism-based
[2] = test system: Mycobacterium tuberculosis variant bovis BCG; experiment: Induction of ROS generation in Mycobacterium bovis BCG ATCC 35734 at 2 times of MIC90 after 90 mins by cellrox-green reagent based assay; format: functional, organism-based
[3] = test system: Mycobacterium tuberculosis variant bovis BCG; experiment: Antimycobacterial activity against Mycobacterium bovis BCG ATCC 35734 incubated for 5 days by broth dilution method; format: functional; conditions: ATCC 35734, 120 h, time 5 day
[4] = test system: Mycobacterium tuberculosis variant bovis BCG; experiment: Induction of oxidative stress Mycobacterium bovis BCG-pfurA-RFP ATCC 35734 assessed as activation of pfurA at 0.5 to 2 times MIC90 after 24 hrs by fluorescence assay; format: functional, organism-based
[5] = test system: Mycobacterium tuberculosis variant bovis BCG; experiment: Ratio of MIC for antimycobacterial activity against Mycobacterium bovis BCG ATCC 35734 in absence of glycerol to MIC for antimycobacterial activity against Mycobacterium bovis BCG ATCC 35734 in presence of glycerol; format: functional
Cell membrane [6] = experiment: Induction of membrane permeabilization in Mycobacterium bovis BCG ATCC 35734 at 4 times MIC after 8 hrs by SYTO9 and PI staining based fluorescence assay; format: functional, subcellular; conditions: Mycobacterium tuberculosis variant bovis BCG
[7] = test system: Mycobacterium tuberculosis variant bovis BCG; experiment: Bactericidal activity against Mycobacterium bovis BCG ATCC 35734 at 0.5 to 1 times MIC90 incubated for 5 days in presence of TEMPO; format: functional, organism-based; conditions: time 5.0 day
[8] = test system: Mycobacterium tuberculosis variant bovis BCG; experiment: Induction of ROS generation in Mycobacterium bovis BCG ATCC 35734 at 2 times of MIC90 measured upto 24 hrs by cellrox-green reagent based assay; format: functional, organism-based; conditions: time hrs <=24
[9] = test system: Mycobacterium tuberculosis variant bovis BCG; experiment: Bactericidal activity against Mycobacterium bovis BCG ATCC 35734 assessed as reduction in colony forming unit at 0.5 to 1 times MIC90 incubated for 5 days; format: functional, organism-based; conditions: time 5.0 day
[10] = test system: Mycobacterium tuberculosis variant bovis BCG; experiment: Antimycobacterial activity against Mycobacterium bovis BCG ATCC 35734 carrying katG loss-of-function mutant assessed fold reduction in MIC at 1 to 2 times of MIC90 incubated for 5 days; format: functional; conditions: time 5 day
[11] = test system: Mycobacterium tuberculosis variant bovis BCG; experiment: Bactericidal activity against Mycobacterium bovis BCG ATCC 35734 assessed as fold reduction in viability at 4 times MIC measured over 14 days by time-kill assay; format: functional; conditions: time 14 day
[12] = test system: Mycobacterium tuberculosis H37Rv; experiment: Activation of Mycobacterium tuberculosis NDH-2 overexpressed in mc24517 inverted membrane vesicles assessed as increase in NADH oxidation; format: cell membranes; conditions: Membrane vesicle, filed as activator
[13] = test system: Mycobacterium tuberculosis variant bovis BCG; experiment: Bactericidal activity against Mycobacterium bovis BCG ATCC 35734 incubated for 5 days by broth dilution method; format: functional; conditions: ATCC 35734, 120 h, time 5 day, read-out: MBC99.9
[14] = test system: Mycobacterium tuberculosis variant bovis BCG; experiment: Bactericidal activity against Mycobacterium bovis BCG ATCC 35734 at 0.5 to 1 times MIC90 incubated for 5 days in presence of thiourea; format: functional, organism-based; conditions: time 5.0 day
[15] = test system: Mycobacterium tuberculosis variant bovis BCG; experiment: Bactericidal activity against Mycobacterium bovis BCG ATCC 35734 assessed as fold reduction in viability at 40 times MIC90 preincubated for 20 days under oxygen deprived condition followed by compound addition and measured after 5 days; format: functional; conditions: time 5 day
[16] = test system: Mycobacterium tuberculosis variant bovis BCG; experiment: Bactericidal activity against Mycobacterium bovis BCG ATCC 35734 assessed as reduction in colony forming count at 4 times MIC measured over 28 days by time-kill assay; format: functional, organism-based; conditions: time 28.0 day
[17] = test system: Mycobacterium tuberculosis variant bovis BCG; experiment: Bactericidal activity against Mycobacterium bovis BCG ATCC 35734 at 0.5 to 1 times MIC90 incubated for 5 days in presence of N-acetylcysteine; format: functional, organism-based; conditions: time 5.0 day
Cell membrane [18] = experiment: Induction of cell membrane depolarization in Mycobacterium bovis BCG ATCC 35734 at 4 times MIC after 8 hrs by DiOC2 dye based flourescence assay; format: functional, subcellular; conditions: Mycobacterium tuberculosis variant bovis BCG
Cell membrane [19] = experiment: Induction of cell envelope stress in Mycobacterium bovis BCG ATCC 35734 expressing piniBAC RFP at 100 times MIC90 after 24 hrs by fluorescence analysis; format: functional, subcellular; conditions: Mycobacterium tuberculosis variant bovis BCG
[20] = test system: Mycobacterium tuberculosis variant bovis BCG; experiment: Antimycobacterial activity against Mycobacterium bovis BCG ATCC 35734 carrying katG loss-of-function mutant assessed fold reduction in MIC at 1 to 2 times of MIC90 incubated for 5 days under liquid medium; format: functional, organism-based; conditions: time 5.0 day
[21] = test system: Mycobacterium tuberculosis variant bovis BCG; experiment: Antimycobacterial activity against Mycobacterium bovis BCG ATCC 35734 carrying katG loss-of-function mutant assessed fold reduction in MIC at 1 to 2 times of MIC90 incubated for 5 days under solid agar medium; format: functional, organism-based; conditions: time 5.0 day
[22] = test system: Mycobacterium tuberculosis variant bovis BCG; experiment: Bactericidal activity against Mycobacterium bovis BCG ATCC 35734 assessed as reduction in colony forming unit at 8 times MIC measured after 21 days by time-kill assay; format: functional, organism-based; conditions: time 21.0 day
[23] = test system: Mycobacterium tuberculosis variant bovis BCG; experiment: Induction of oxidative stress Mycobacterium bovis BCG-pfurA-RFP ATCC 35734 assessed as activation of pfurA after 24 hrs by fluorescence assay; format: functional, organism-based
[24] = test system: Mycobacterium tuberculosis variant bovis BCG; experiment: Induction of ROS generation in Mycobacterium bovis BCG ATCC 35734 after 90 mins by cellrox-green reagent based assay; format: functional, organism-based

## CCCCCCCCn1c(C)nc2c1C(=O)c1ccccc1C2=O
[1]
  Activity: inactive
[2]
  Activity: Active
[3]
  MIC90: 11 µM (≈ 3.57 µg/mL)
[4]
  Activity: inactive

## CCCCCCCC[n+]1c2c(n(CC(C)C)c1C)C(=O)c1ccccc1C2=O
[5]
  Ratio: < 2
[3]
  MIC50: 0.14 µM
  MIC90: 0.26 µM

## CCCCCCCCn1c2c([n+](CCCC)c1C)C(=O)c1ccccc1C2=O.[Br-]
Cell membrane [6]
  Activity: inactive
[5]
  Ratio: < 2
[7]
  Activity: Active
[8]
  Activity: Active
[3]
  MIC50: 0.15 µM
  MIC90: 0.26 µM
[9]
  Activity: Active
[10]
  fold change (FC): 2
[11]
  fold change (FC): 100000
[12]
  fold change (FC): 4.7
[13]
  MBC: 0.64 µM
[14]
  Activity: Active
[15]
  fold change (FC): 10
[16]
  Activity: Active
[17]
  Activity: Active
Cell membrane [18]
  Activity: inactive
Cell membrane [19]
  Activity: inactive
[20]
  Activity: Active
[21]
  Activity: Active
[22]
  Activity: Active
[23]
  Activity: Dose-Dependent Effect
[24]
  Activity: Dose-Dependent Effect

## CCCCn1c2c([n+](C3CCC4(CCCCC4)CC3)c1C)C(=O)c1ccccc1C2=O.[Br-]
[5]
  Ratio: < 2
[8]
  Activity: Active
[3]
  MIC50: 0.13 µM
  MIC90: 0.3 µM
[13]
  MBC: 1.3 µM
Cell membrane [19]
  Activity: inactive
[20]
  Activity: inactive
[21]
  Activity: Active
[23]
  Activity: Dose-Dependent Effect
[24]
  Activity: Dose-Dependent Effect

## CCCCCCCCn1c2c([n+](C3CCC4(CCCCC4)CC3)c1C)C(=O)c1ccccc1C2=O
[3]
  MIC50: 0.11 µM
  MIC90: 0.2 µM
[13]
  MBC: 0.2 µM

## CCCCCC[n+]1c2c(n(CC(C)C)c1C)C(=O)c1ccccc1C2=O
[5]
  Ratio: < 2
[3]
  MIC50: 0.18 µM
  MIC90: 0.3 µM

## CCCCCCn1c2c([n+](CCCCCC)c1C)C(=O)c1ccncc1C2=O
[3]
  MIC90: 5.4 µM

## CCCC[n+]1c2c(n(C(C)C)c1C)C(=O)c1ccccc1C2=O
[3]
  MIC90: 3.1 µM

## CCCCCCn1c(C)nc2c1C(=O)c1ccccc1C2=O
[1]
  Activity: inactive
[2]
  Activity: Active
[3]
  MIC90: 15 µM (≈ 4.45 µg/mL)
[4]
  Activity: inactive

## CCCCn1c2c([n+](C3CC3)c1C)C(=O)c1ccccc1C2=O
[3]
  MIC90: 6.9 µM

## CCCC[n+]1c2c(n(CC(C)C)c1C)C(=O)c1ccccc1C2=O
[3]
  MIC90: 1.5 µM

## CCCC[n+]1c2c(n(CCC)c1C)C(=O)c1ccccc1C2=O
[3]
  MIC90: 2.3 µM

## CCC[n+]1c2c(n(CC(C)C)c1C)C(=O)c1ccccc1C2=O
[3]
  MIC90: 3 µM

## CCCCCCCn1c2c([n+](CCCCC)c1C)C(=O)c1ccccc1C2=O.[Br-]
Cell membrane [6]
  Activity: inactive
[5]
  Ratio: < 2
[3]
  MIC50: 0.16 µM
  MIC90: 0.27 µM
[10]
  fold change (FC): 2
[11]
  fold change (FC): 100000
[13]
  MBC: 0.64 µM
[15]
  fold change (FC): 10
[16]
  Activity: Active
Cell membrane [18]
  Activity: inactive
Cell membrane [19]
  Activity: inactive
[23]
  Activity: Dose-Dependent Effect
[24]
  Activity: Dose-Dependent Effect

## CCCCn1c2c([n+](CC)c1C)C(=O)c1ccccc1C2=O
[3]
  MIC90: 7.7 µM

## CCC(C)[n+]1c2c(n(CC)c1C)C(=O)c1ccccc1C2=O (centres undefined)
[3]
  MIC90: 11 µM

## CCCCCCCCn1c(C)nc2ccccc21
[3]
  MIC90: 23 µM (≈ 5.62 µg/mL)

## CCCn1c2c([n+](C3CC3)c1C)C(=O)c1ccccc1C2=O
[3]
  MIC90: 17 µM

## Cc1n(CC(C)C)c2c([n+]1C)C(=O)c1ccccc1C2=O
[3]
  MIC90: 6.3 µM

## CCCCCCCCn1c2c([n+](CCCC)c1C)C(=O)c1cccnc1C2=O
[3]
  MIC90: 3.3 µM

## Cc1n(C)c2c([n+]1C1CC1)C(=O)c1ccccc1C2=O
[3]
  MIC90: 34 µM

## CCn1c(C)nc2c1C(=O)c1ccccc1C2=O
[3]
  MIC90: > 50 µM

## CCCCCCCCCCn1c(C)nc2c1C(=O)c1ccccc1C2=O
[3]
  MIC90: 47 µM (≈ 16.6 µg/mL)

## CCCCCCCCCCn1c(C)nc2ccccc21
[3]
  MIC90: 15 µM (≈ 4.09 µg/mL)

## Cc1n(C)c2c([n+]1C)C(=O)c1ccccc1C2=O
[3]
  MIC90: 40 µM

## Cc1nc2c(n1C)C(=O)c1ccccc1C2=O
[3]
  MIC90: > 50 µM

## CCn1c2c([n+](CC)c1C)C(=O)c1ccccc1C2=O
[3]
  MIC90: 17 µM

## CCCCCCn1c2c([n+](CCCCCC)c1C)C(=O)c1ccccc1C2=O
[5]
  Ratio: < 2
[3]
  MIC50: 0.11 µM
  MIC90: 0.22 µM
[13]
  MBC: 0.64 µM

## CCCCn1c2c([n+](CCCC)c1C)C(=O)c1ccncc1C2=O
[3]
  MIC90: 21 µM

## Cc1n(CC(C)C)c2c([n+]1C(C)C)C(=O)c1ccccc1C2=O
[3]
  MIC90: 5.6 µM

## CCCCCCCC[n+]1c2c(n(CCCC)c1CC)C(=O)c1ccccc1C2=O
[3]
  MIC90: 0.49 µM

## CC[n+]1c2c(n(C(C)C)c1C)C(=O)c1ccccc1C2=O
[3]
  MIC90: 15 µM

## Cc1n(CC(C)C)c2c([n+]1CC(C)C)C(=O)c1ccccc1C2=O
[3]
  MIC90: 1.9 µM

## CCCCn1c2c([n+](CCCC)c1C)C(=O)c1cccnc1C2=O
[3]
  MIC90: 12 µM

## Cc1n(C(C)C)c2c([n+]1C1CC1)C(=O)c1ccccc1C2=O
[3]
  MIC90: 35 µM

## Cc1n(C)c2c([n+]1C(C)C)C(=O)c1ccccc1C2=O
[3]
  MIC90: 6.2 µM

## CCCCCCn1c2c([n+](C3CCC4(CCCCC4)CC3)c1C)C(=O)c1ccccc1C2=O
[3]
  MIC90: 0.15 µM
[13]
  MBC: 0.2 µM

## CCCCCCn1c2c([n+](C(C)CC)c1C)C(=O)c1ccccc1C2=O (centres undefined)
[3]
  MIC90: 0.66 µM

## CCCCn1c2c([n+](CCC3CCCCC3)c1C)C(=O)c1ccccc1C2=O
[3]
  MIC90: 0.37 µM

## Cc1nc2c(n1C(C)C)C(=O)c1ccccc1C2=O
[3]
  MIC90: > 50 µM

## CCCCCCCCn1c2c([n+](CCCCC)c1C)C(=O)c1ccccc1C2=O
[3]
  MIC90: 0.33 µM
